{"source": "patent US5183828A", "about": "“Polyhydroxybenzoic acid derivatives” (priority 1990, dated 1993)", "key": {"L1210 leukemia": {"tested_on": "L1210 leukemia", "assay": "antitumor activity in L1210 leukemia (percent increase in survival time), Table 2", "assay_type": "in vivo, mice", "conditions": "8 days", "experimental": "Testing of the compounds of this invention against L-1210 lymphoid leukemia were carried out as follows: L-1210 leukemia was maintained by weekly passage of 10^5 L-1210 cells intraperitoneally into DBA/2 mice. Diluted ascitic fluid, 0.1 ml. (10^5 cells), was administered ip to female B6D2 F1 mice weighing about 20 g. Drugs were administered ip 24 hours after tumor transplantation and injections were continued daily for a total of eight days. A group of control mice receiving only the injection medium were maintained. Table 2 which follows gives the antitumor activity against L-1210 leukemia for certain compounds of this invention. In the table, column 1 gives the name of the compound, column 2 the dose in mg./kg., and column 3 the percent increase in survival time over controls at each dose level."}, "L-1210 Leukemia": {"tested_on": "L-1210 Leukemia", "assay": "activity vs L-1210 leukemia (T/C % survival time), Table 3", "assay_type": "in vivo, mice", "conditions": ">130 significant, hydrochloride", "description": "3,4-Dihydroxybenzamidoxime and 3,4,5-trihydroxybenzamidoxime were subjected to a further series of tests against various transplanted tumors in mice according to the following protocols:\nFor L-1210 lymphoid leukemia, 20 grams CDF1 or BDF1 mice […] ip with 10^5 leukemia cells. The drug was given one day after tumor inoculation continued for an additional eight days. The mean survival time for the treated animal was compared to that of the control group. In the table, column 1 gives the name of the compound, column 2 the dose levels, and column 3 treated over control percent survival time. (In other words, a figure of 175 indicates a 75% increase in survival time.)"}, "P388 Leukemia": {"tested_on": "P388 Leukemia", "assay": "activity vs P388 leukemia (T/C % survival time), Table 6", "assay_type": "in vivo, mice", "conditions": "five treatments, >130 significant", "experimental": "The following protocol was used:\nCDF1 mice were injected ip with 10^6 cells The drug was administered in the first day after tumor inoculation and continued daily for five treatments. The mean survival time of the treated group compared to the non-treated control group equals T/C×100=T/C percent."}, "[1]": {"assay": "free radical scavenging ability (destruction of diphenylpicrylhydrazyl), Table 7", "conditions": "100 μM diphenylpicrylhydrazyl in acetone; test compound 25 μM, 2.5 μM (footnote)", "description": "It is believed that the antineoplastic activity of the compounds of this invention is due in parts to their ability to scavenge free-radicals. Additionally, the compounds of this invention are cancer protective agents and this utility also may be a manifestation of their free-radical scavenging capability. Free-radical scavenging agents may also be useful in detoxifying mammals in whom an excess of free radicals is a cause and/or result of the toxicity. Other possible uses of free radical scavengers are to inhibit protaglandin transformation, leucotriene interconversion and lipogenesis, to act as inflammatory modulators and as food additive or preservatives to prevent lipid oxidation. The free radical scavenging ability of the compounds of the invention was determined by measuring the destruction of the stable free radical, diphenylpicrylhydrazyl, in the presence of the test compound in a manner similar to that reported by […] and Herzmann, Naturwiss, 47, 133-134 (1960). […] The test compound was added at a final concentration of 25 μM and the rate of reduction of absorpotion at […] was observed. Table 7 below gives the free radical scavenging abilities of the compounds of this invention expresses as the initial rate of decrease in optical density units/min."}, "[2]": {"tested_on": "arachidonic acid induced ear edema", "assay": "arachidonic acid induced ear edema assay, Table 10", "assay_type": "in vivo, Mice", "conditions": "Experiment 1, 2 mg total dose, topical; for Mean Increase in Weight of Inflammed Ear (± S.E.): positive control 17.0 ± 0.6, p = .000", "experimental": "The compounds of this invention because of their ability to scavenge free-radicals in vivo are capable of modulating inflammation as set forth in the following protocol: Mice received the test compound topically to each side of the right ear one hr prior to the inflammatory challenge, at which time they were challenged (except for the negative control) with 10 microliter of a 2 mg/20 microliter solution of arachidonic acid applied to each side of the right ear. One hour post-challenge, the animals were sacrificed, the right ears removed, and an 8 mm disc punched from each. These discs were then weighed. The following table gives the results of this experiment."}, "Δ^5-lipoxygenase": {"target": "T1, Δ^5-lipoxygenase (Rattus norvegicus, UniProt P12527)", "T1 construct": "supernatant fraction of lysed rat basophilic leukemia (RBL-1) cells; endogenous in cells; host or cells: RBL-1 cells, 49,000 g supernatant of homogenate", "T1 sequence (P12527 1-673)": "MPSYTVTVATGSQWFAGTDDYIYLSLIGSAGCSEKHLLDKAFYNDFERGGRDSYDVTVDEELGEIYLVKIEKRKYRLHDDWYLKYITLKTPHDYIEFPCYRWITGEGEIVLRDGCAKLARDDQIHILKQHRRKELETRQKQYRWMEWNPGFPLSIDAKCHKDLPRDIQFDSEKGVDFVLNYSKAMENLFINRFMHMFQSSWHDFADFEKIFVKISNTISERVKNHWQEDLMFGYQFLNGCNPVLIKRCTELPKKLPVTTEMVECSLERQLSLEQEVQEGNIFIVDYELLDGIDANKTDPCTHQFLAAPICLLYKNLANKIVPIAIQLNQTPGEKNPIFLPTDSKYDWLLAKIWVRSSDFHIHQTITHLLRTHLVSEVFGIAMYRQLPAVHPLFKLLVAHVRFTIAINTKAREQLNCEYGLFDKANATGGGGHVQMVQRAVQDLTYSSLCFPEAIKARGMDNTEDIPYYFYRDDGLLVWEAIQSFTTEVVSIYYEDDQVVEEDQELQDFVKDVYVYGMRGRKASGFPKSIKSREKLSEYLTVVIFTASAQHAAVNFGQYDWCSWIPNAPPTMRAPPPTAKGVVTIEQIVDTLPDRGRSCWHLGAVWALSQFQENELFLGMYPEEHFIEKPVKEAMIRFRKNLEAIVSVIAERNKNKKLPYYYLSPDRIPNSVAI", "assay": "ability to inhibit Δ^5-lipoxygenase", "assay_type": "biochemical", "conditions": "RBL-1 cell supernatant", "experimental": "This enzyme is believed to initiate the synthesis of slow reacting substance of […]), an important mediator in the pathogenesis of asthma. Thus, a drug capable of inhibiting this enzyme would also help to prevent asthmatic attacks. In this determination, Δ^5 -lipoxygenase was derived from the supernatant fraction of lysed rat basophilic leukemia (RBL-1) cells. […] The Δ^5 -lipoxygenase was derived from RBL-1 cells which were lysed by homogenization in ice-cold buffer (50 mM Tris-HCl buffer, pH 7.2, containing 1 mM EDTA and 14 uM indomethacin). The homogenate was centrifuged at 4 ° C. at 49,000 g for 20 min and the resulting supernatant fraction was used as the source of Δ^5 -lipoxygenase. The enzyme was assayed at 37° using 6.7 uM (0.39 uCi/ml) [1-14C]arachidonic acid as the substrate in 50 mM Tris-HCl buffer, pH 7.2, containing 1 mM gluthatione, 3 mM CaCl2, 14 uM indomethacin, and 0.25 to 0.50 mM EDTA. […] The effect of compounds on Δ^5 -lipoxygenase activity was determined by preincubating the enzyme for 10 min at 30° in the presence or absence of various concentrations of the drug prior to addition of substrate."}, "L1210": {"tested_on": "L1210", "assay": "antileukemia activity of nitriles vs L1210, Table 8", "assay_type": "in vivo", "description": "(§1) Table 8 which follows gives anti-tumor data vs L-1210 and P-388 leukemia for these novel nitriles."}, "P-388": {"tested_on": "P-388", "assay": "antileukemia activity of nitriles vs P-388, Table 8", "assay_type": "in vivo", "description": "as §1"}}, "note": "“And” between values parts separate entries of the source, which are not always exact repeats. Equal values may be shown once.", "data": [{"smiles": "Cl.NC(=NO)c1cc(O)c(O)c(O)c1", "note": "[3,4,5-trihydroxybenzamidoxime.HCl, 3,4,5-Trihydroxybenzamidoxime hydrochloride]", "values": [{"measurement": "% Increase in Survival Time", "setting": "L1210 leukemia; 196 mg/kg ip daily", "value": "toxic"}, {"measurement": "ILS at 59 mg/kg", "setting": "L1210 leukemia; Mus musculus, L1210, 192 h, 59 mg/kg ip daily", "value": 90, "unit": "%"}, {"measurement": "ILS at 132 mg/kg", "setting": "L1210 leukemia; Mus musculus, L1210, 192 h, 132 mg/kg ip daily", "value": 54.5, "unit": "%"}, {"measurement": "ILS at 220 mg/kg", "setting": "L1210 leukemia; Mus musculus, L1210, 192 h, 220 mg/kg ip daily", "value": 63.6, "unit": "%"}, {"measurement": "ILS at 275 mg/kg", "setting": "L1210 leukemia; Mus musculus, L1210, 192 h, 275 mg/kg ip daily", "value": 30.6, "unit": "%"}, {"measurement": "t/c % (mean survival time)", "setting": "L-1210 Leukemia; 25 mg/kg", "value": "136% and 121%"}, {"measurement": "t/c % (mean survival time)", "setting": "L-1210 Leukemia; 50 mg/kg", "value": "138% and 137%"}, {"measurement": "t/c % (mean survival time)", "setting": "L-1210 Leukemia; 100 mg/kg", "value": "152% and 137%"}, {"measurement": "t/c % (mean survival time)", "setting": "L-1210 Leukemia; 200 mg/kg", "value": "212% and 182%"}, {"measurement": "T/C % (mean survival time)", "setting": "P388 Leukemia; 50 mg/kg daily, hydrochloride", "value": "142% and 138% and 141%"}, {"measurement": "T/C % (mean survival time)", "setting": "P388 Leukemia; 100 mg/kg daily, hydrochloride", "value": "150% and 154% and 138% and 148%"}, {"measurement": "T/C % (mean survival time)", "setting": "P388 Leukemia; 200 mg/kg daily, hydrochloride", "value": "155% and 177%"}, {"measurement": "T/C % (mean survival time)", "setting": "P388 Leukemia; 300 mg/kg daily", "value": 163, "unit": "%"}, {"measurement": "T/C % (mean survival time)", "setting": "P388 Leukemia; 400 mg/kg daily", "value": "toxic"}, {"measurement": "initial rate of decrease in optical density (518 nm)", "setting": "[1]", "value": 0.929, "unit": "units/min."}, {"measurement": "Percent Inhibition vs. positive control", "setting": "[2]", "value": 44, "unit": "%"}, {"measurement": "Mean Increase in Weight of Inflammed Ear (± S.E.)", "setting": "[2]", "value": "9.5 ± 0.3", "unit": "mg"}, {"measurement": "inhibition at 1 µM", "setting": "Δ^5-lipoxygenase; 1 uM", "value": 24, "unit": "%"}, {"measurement": "inhibition at 10 µM", "setting": "Δ^5-lipoxygenase", "value": 90, "unit": "%"}]}, {"smiles": "Cl.N=C(N)c1cc(O)c(O)c(O)c1", "note": "[3,4,5-trihydroxybenzamidine.HCl, 3,4,5-trihydroxybenzamidine-HCl]", "values": [{"measurement": "ILS at 200 mg/kg", "setting": "L1210 leukemia; Mus musculus, L1210, 192 h, 200 mg/kg ip daily", "value": 43.5, "unit": "%"}, {"measurement": "ILS at 300 mg/kg", "setting": "L1210 leukemia; Mus musculus, L1210, 192 h, 300 mg/kg ip daily", "value": 10.2, "unit": "%"}, {"measurement": "initial rate of decrease in optical density (518 nm)", "setting": "[1]", "value": 4.912, "unit": "units/min."}, {"measurement": "Percent Inhibition vs. positive control", "setting": "[2]", "value": 24, "unit": "%"}, {"measurement": "Mean Increase in Weight of Inflammed Ear (± S.E.)", "setting": "[2]", "value": "13.0 ± 0.3", "unit": "mg"}, {"measurement": "inhibition at 10 µM", "setting": "Δ^5-lipoxygenase", "value": 75, "unit": "%"}]}, {"smiles": "N#Cc1cc(O)c(O)c(O)c1", "note": "[3,4,5-trihydroxybenzonitrile]", "values": [{"measurement": "% Increase in Survival Time", "setting": "L1210; 118 mg/kg", "value": 34.0, "unit": "%"}, {"measurement": "% Increase in Survival Time", "setting": "L1210; 157 mg/kg", "value": 28.0, "unit": "%"}, {"measurement": "% Increase in Survival Time", "setting": "P-388; 50 mg/kg", "value": "15% and 20%"}, {"measurement": "% Increase in Survival Time", "setting": "P-388; 200 mg/kg", "value": "26% and 39%"}, {"measurement": "% Increase in Survival Time", "setting": "P-388; 400 mg/kg", "value": 26, "unit": "%"}]}]}
